Results on one compound are retold here after PMC6158189, “A pharmacological probe identifies cystathionine β-synthase as a new negative regulator for ferroptosis” (Cell Death & Disease, 2018).

Several values for one entry are separate records, joined by “and”; a condition that tells them apart may be missing. Equal entries are not always repeated. Where two headings read alike, the source gives them in different places.

One test concerns the target T1, hCBS (Homo sapiens, UniProt P35520).
T1 construct: GST (N); made in house; host or cells: E. coli BL21
T1 sequence (P35520 1-551): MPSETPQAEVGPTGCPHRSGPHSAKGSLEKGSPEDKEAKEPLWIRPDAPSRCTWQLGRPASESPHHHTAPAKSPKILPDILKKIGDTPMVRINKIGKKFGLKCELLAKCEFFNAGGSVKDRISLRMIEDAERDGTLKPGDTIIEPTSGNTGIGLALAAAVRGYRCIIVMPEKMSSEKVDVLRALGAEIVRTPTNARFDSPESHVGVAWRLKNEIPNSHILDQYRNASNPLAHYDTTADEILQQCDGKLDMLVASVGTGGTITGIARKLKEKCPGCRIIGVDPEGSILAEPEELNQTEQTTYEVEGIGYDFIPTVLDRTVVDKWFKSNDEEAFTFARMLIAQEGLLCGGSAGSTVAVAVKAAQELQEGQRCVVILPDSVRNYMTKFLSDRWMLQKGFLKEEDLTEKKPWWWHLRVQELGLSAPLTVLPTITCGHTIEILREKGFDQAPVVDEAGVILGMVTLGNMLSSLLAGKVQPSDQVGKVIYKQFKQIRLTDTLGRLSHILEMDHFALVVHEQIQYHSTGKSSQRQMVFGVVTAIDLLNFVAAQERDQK
The test is described as follows: enzyme kinetics of hCBS inhibition. The class given is biochemical. As for the experimental part: Figure S2. The mode of action of CH004 in inhibiting hCBS. […] After incubation with DMSO or CH004 at 10 μM for 40 min, hCBS (20 μM) was diluted 200-fold and the activity was measured according to the standard assay protocol (Materials and Methods). The data are presented as percentages of control (CTR; DMSO, 100%) and shown as means ± SDs (n = 5). The effects of 0.05 and 10 μM CH004 on hCBS (100 nM) without pre-incubation were defined as positive control (PC) and negative control (NC), respectively. (B) Inhibition of hCBS by CH004 as a function of PLP concentration with Cys (20 mM) together with Hcys (10 mM) as substrates (non-competitive inhibition constant αKi=15.2 ± 4.9 μM). (C) Inhibition of hCBS by CH004 as a function of Cys concentration in the presence of 100 μM PLP and the absence of Hcys (mixed inhibition constant αKi=26.4 ± 8 μM). (D) Inhibition of hCBS by CH004 as a function of Hcys concentration in the presence of 20 mM Cys and 100 μM PLP (mixed inhibition constant αKi’=7.2 ± 1.6 μM). Each point in the Lineweaver-Burk plots represents the means of triplicate. The αKi or αKi’ values were calculated by using the non-linear fitting method for enzyme kinetics in GraphPad Prism 5. (E) Surface Plasmon Resonance assays analysis of the binding of CH004 to hCBS. Solutions with various concentrations of CH004 (0.097–12.5 µM) were injected into the chamber with a hCBS-coated sensor chip. The change of response units is shown over time. Dissociation constants for CH004 (KD) were calculated by using Biacore evaluation software (Materials and Methods).

The target of the next test is hCSE (Homo sapiens, UniProt P32929). The test is described as follows: purified hCSE enzyme assay. Type of test: biochemical. Further details: human CBS or hCSE full-length (CBS-FL or CSE) was subcloned into pGEX-KG, pcDNA3 or pCDH vector; GST (N); made in house; host or cells: E. coli BL21. On the procedure:
Fig. 1 CH004 inhibits the activity of hCBS in the in vitro purified enzyme assays under different assay conditions. a A scheme for the cascade enzymatic reactions catalyzed by CBS or CSE. Cth, cystathionine. b, c Inhibitory effects of CH004 on the activity of hCBS-413 (b) or hCSE (c). The enzyme activities were monitored for various concentrations of CH004 under the standard conditions (50 mM Tris-HCl, pH 8.6; “Materials and Methods” section). The result is shown as percentages of the control (DMSO, 100%). The data are shown as means ± SDS (n = 3). d The dose-dependent inhibition of CH004 on the hCBS-413 activity was measured by the tandem-well-based assay under the standard conditions except using 50 mM Hepes buffer (pH 7.4) instead of 50 mM Tris-HCl (pH 8.6). Means ± SDs (n = 3). e The dose-dependent inhibition of CH004 on the CBS activity measured by methylene blue method. […] After 80 min, the assay was stopped by added 10 μL 10% ZnAC and the generated H2S was quantified by N,N-dimethyl-p-phenylenediamine to give an absorbance at 670 nm (for details, see Materials and Methods section; ref. [53]).
The IC50 values of CH004 for hCBS-413, hCBS-413 mutants, hCBS-FL, hCSE or hDDC were determined according to the standard assay conditions otherwise indicated.

Chain of hCSE (P32929 whole entry): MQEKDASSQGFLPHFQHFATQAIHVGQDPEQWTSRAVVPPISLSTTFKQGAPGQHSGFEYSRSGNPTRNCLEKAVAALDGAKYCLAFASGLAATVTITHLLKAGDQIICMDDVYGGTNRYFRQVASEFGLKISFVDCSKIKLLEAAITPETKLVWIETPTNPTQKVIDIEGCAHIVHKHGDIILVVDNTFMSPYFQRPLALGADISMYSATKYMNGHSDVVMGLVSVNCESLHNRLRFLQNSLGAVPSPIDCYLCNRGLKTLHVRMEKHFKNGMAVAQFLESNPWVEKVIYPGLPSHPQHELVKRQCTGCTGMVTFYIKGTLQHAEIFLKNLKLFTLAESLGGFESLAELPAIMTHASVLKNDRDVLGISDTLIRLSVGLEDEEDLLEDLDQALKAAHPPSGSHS

For `Cn1nc(Cc2ccccc2)nc2c(=O)n(C)c(=O)nc1-2` [CH004, 3-benzyl-1,6-dimethylpyrimido[5,4-e][1,2,4]triazine-5,7(1H,6H)-dione], the “mode of inhibition toward Cys and Hcys” value at hCBS is “mixed-type inhibition”. Also, on hCBS, the “mode of inhibition toward PLP” value is “noncompetitive inhibition”. Moreover, the Ki on hCBS (100 μM PLP, absence of Hcys, read-out: αKi toward Cys (mixed inhibition constant)) is ~26.4 µM and 26.4 µM; at hCBS (20 mM Cys, 100 μM PLP, read-out: αKi’ toward Hcys (mixed inhibition constant)) it was ~7.2 µM and 7.2 µM; at hCBS (Cys 20 mM and Hcys 10 mM as substrates, read-out: αKi toward PLP (non-competitive inhibition constant)), ~15.2 µM and 15.2 µM. Besides, on hCSE (IC50 of hCSE / IC50 of hCBS-413), the “Fold selectivity hCSE vs hCBS-413” value came to 29.9 fold. Further, on hCSE (standard conditions, 50 mM Tris-HCl pH 8.6), the half-maximal inhibitory concentration (IC50) was determined as 29.9 ± 5.6 µM.

The IC50 is the concentration that gives 50% inhibition. The low end stands for higher potency, the high end for lower potency.
